In the experiment the target is T1, hTAS2R31 (Homo sapiens, UniProt P59538).
T1 sequence (P59538 1-309): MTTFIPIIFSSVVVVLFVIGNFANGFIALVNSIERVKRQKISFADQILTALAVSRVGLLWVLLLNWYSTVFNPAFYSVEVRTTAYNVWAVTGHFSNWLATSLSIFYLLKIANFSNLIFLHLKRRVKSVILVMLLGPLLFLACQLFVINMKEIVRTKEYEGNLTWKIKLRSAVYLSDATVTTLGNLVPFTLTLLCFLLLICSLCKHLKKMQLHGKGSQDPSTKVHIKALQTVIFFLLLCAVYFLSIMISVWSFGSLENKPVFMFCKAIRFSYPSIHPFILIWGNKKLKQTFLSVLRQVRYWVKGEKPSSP
The experiment is described as follows: HEK-293T cell-based receptor assay.

`COc1cc(O)c2c(c1)O[C@H](c1ccc(O)cc1)CC2=O` [compound 2, sakuranetin] yielded an IC50 of 5.5 ± 2.5 µM.

As for `COc1cc2c(c(O)c1OC)C(=O)C[C@@H](c1ccc(O)cc1)O2` [compound 9, 6-methoxysakuranetin], half-maximal inhibition (IC50) was put at 10.2 ± 5.4 µM.

Compound `COc1cc(-c2cc(=O)c3c(O)c(OC)c(O)cc3o2)ccc1O` [compound 10, jaceosidin] gave a concentration for half-maximal inhibition (IC50) of 11.7 ± 6 µM.

One may read the IC50 as the point on the concentration scale where inhibition reaches its midpoint. Read a low IC50 as greater potency in that assay.

Source of the values: publication PMC4391372 (Journal of agricultural and food chemistry, 2011).
